# Tested on: IL2 release from Jurkat cells
# Experiment: Effect of compounds on IL-2 secretion in T lymphocytes (Jurkat 6.1, anti-CD3/anti-CD28 stimulated, ELISA)
# Assay type: cell-based
# Settings: for IL-2 production, absolute values: 30 min pre-treatment, DMSO control 320.67 (plate 2), 338.25 (plate 3); for IL-2 production, absolute values / activity at 1 µM / activity at 10 µM: 24 h; for effect on IL2 release, in words: 1 and 10 μM; for activity at 1 µM / activity at 10 µM: Homo sapiens, Jurkat, read-out: IL2 release as percentage of anti-CD3/CD28 stimulated release in presence of DMSO, Mean
# Protocol: The T cell line Jurkat 6.1 (ATCC) was used. Cells were pre-treated for 30 min with 1 μM or 10 μM of the respective compound and then stimulated with plate-bound anti-CD3 (BD Pharmingen) and anti-CD28 (AnCell). DMSO was used as vehicle control. […] After 24 hs the supernatant was collected and IL-2 secretion was measured by ELISA.
# Compounds were prepared by dissolution in DMSO to yield final concentrations of 1 and 10 μg/ml
Structure (SMILES),"IL-2 production, absolute values (compound 1 uM) [pg/mL]","IL-2 production, absolute values (compound 10 uM) [pg/mL]","effect on IL2 release, in words",activity at 1 µM [%],activity at 10 µM [%]
"COC(=O)c1ccc(C[C@]2(C3=Cc4ccccc4C3)Cc3ccccc3[C@@H]2O)cc1 [Compound 10, methyl 4-(((1R,2R)-1-hydroxy-2,3-dihydro-1H,1′H-[2,2′-biinden]-2-yl)methyl)benzoate]",185.56,,,,
"CCOC(=O)c1ccc(C[C@]2(C3=Cc4ccccc4C3)Cc3ccccc3[C@@H]2O)cc1 [Compound 11, ethyl 4-(((1R,2R)-1-hydroxy-2,3-dihydro-1H,1′H-[2,2′-biinden]-2-yl)methyl)benzoate]",272.22,105.11,,,
"CCCOC(=O)c1ccc(C[C@]2(C3=Cc4ccccc4C3)Cc3ccccc3[C@@H]2O)cc1 [Compound 12, propyl 4-(((1R,2R)-1-hydroxy-2,3-dihydro-1H,1′H-[2,2′-biinden]-2-yl)methyl)benzoate]",240.22,132.44,,,
"NC(=O)c1ccc(C[C@]2(C3=Cc4ccccc4C3)Cc3ccccc3[C@@H]2O)cc1 [Compound 13, 4-{[(1′R,2′R)-1′-hydroxy-1′,3′-dihydro-1H,2′H-2,2′-biinden-2′-yl]methyl}benzamide]",276.78,151.78,,,
"O=C(NCCO)c1ccc(C[C@]2(C3=Cc4ccccc4C3)Cc3ccccc3[C@@H]2O)cc1 [Compound 14, 4-{[(1′R,2′R)-1′-hydroxy-1′,3′-dihydro-1H,2′H-2,2′-biinden-2′-yl]methyl}-N-(2-hydroxyethyl)benzamide]",214.44,146.44,,,
"CNC(=O)c1ccc(C[C@]2(C3=Cc4ccccc4C3)Cc3ccccc3[C@@H]2O)cc1 [Compound 15, 4-{[(1′R,2′R)-1′-hydroxy-1′,3′-dihydro-1H,2′H-2,2′-biinden-2′-yl]methyl}-N-methylbenzamide]",207.78,113.67,,,
"CN(C)C(=O)c1ccc(C[C@]2(C3=Cc4ccccc4C3)Cc3ccccc3[C@@H]2O)cc1 [Compound 16, 4-{[(1′R,2′R)-1′-hydroxy-1′,3′-dihydro-1H,2′H-2,2′-biinden-2′-yl]methyl}-N,N-dimethylbenzamide]",243.00,171.78,,,
"COC(=O)c1ccc(C[C@@]2(C3=Cc4ccccc4C3)Cc3ccccc3[C@H]2O)cc1 [Compound 17, methyl 4-(((1S,2S)-1-hydroxy-2,3-dihydro-1H,1′H-[2,2′-biinden]-2-yl)methyl)benzoate]",168.44,,,,
"CCOC(=O)c1ccc(C[C@@]2(C3=Cc4ccccc4C3)Cc3ccccc3[C@H]2O)cc1 [Compound 18, ethyl 4-(((1S,2S)-1-hydroxy-2,3-dihydro-1H,1′H-[2,2′-biinden]-2-yl)methyl)benzoate]",190.78,79.56,,,
"CCCOC(=O)c1ccc(C[C@@]2(C3=Cc4ccccc4C3)Cc3ccccc3[C@H]2O)cc1 [Compound 19, propyl 4-(((1S,2S)-1-hydroxy-2,3-dihydro-1H,1′H-[2,2′-biinden]-2-yl)methyl)benzoate]",174.44,81.00,,,
"NC(=O)c1ccc(C[C@@]2(C3=Cc4ccccc4C3)Cc3ccccc3[C@H]2O)cc1 [Compound 20, 4-{[(1′S,2′S)-1′-hydroxy-1′,3′-dihydro-1H,2′H-2,2′-biinden-2′-yl]methyl}benzamide]",174.11,141.78,,,
"O=C(NCCO)c1ccc(C[C@@]2(C3=Cc4ccccc4C3)Cc3ccccc3[C@H]2O)cc1 [Compound 21, 4-{[(1′S,2′S)-1′-hydroxy-1′,3′-dihydro-1H,2′H-2,2′-biinden-2′-yl]methyl}-N-(2-hydroxyethyl)benzamide]",210.89,137.78,,,
"CNC(=O)c1ccc(C[C@@]2(C3=Cc4ccccc4C3)Cc3ccccc3[C@H]2O)cc1 [Compound 22, 4-{[(1′S,2′S)-1′-hydroxy-1′,3′-dihydro-1H,2′H-2,2′-biinden-2′-yl]methyl}-N-methylbenzamide]",198.56,113.33,,,
"CN(C)C(=O)c1ccc(C[C@@]2(C3=Cc4ccccc4C3)Cc3ccccc3[C@H]2O)cc1 [Compound 23, 4-{[(1′S,2′S)-1′-hydroxy-1′,3′-dihydro-1H,2′H-2,2′-biinden-2′-yl]methyl}-N,N-dimethylbenzamide]",191.44,193.56,,,
"CC(C)C[C@H](N)C(=O)O[C@H]1c2ccccc2C[C@]1(Cc1ccc(C(=O)O)cc1)C1=Cc2ccccc2C1 [Compound 24, 4-{[(1′R,2′R)-1′-(L-leucyloxy)-1′,3′-dihydro-1H,2′H-2,2′-biinden-2′-yl]methyl}benzoic acid]",202.13,149.63,,,
"CC(C)[C@H](N)C(=O)O[C@H]1c2ccccc2C[C@]1(Cc1ccc(C(=O)O)cc1)C1=Cc2ccccc2C1 [Compound 25, 4-{[(1′R,2′R)-1′-(L-valyloxy)-1′,3′-dihydro-1H,2′H-2,2′-biinden-2′-yl]methyl}benzoic acid]",208.38,174.25,,,
"CC[C@H](C)[C@H](N)C(=O)O[C@H]1c2ccccc2C[C@]1(Cc1ccc(C(=O)O)cc1)C1=Cc2ccccc2C1 [Compound 26, 4-{[(1′R,2′R)-1′-(L-isoleucyloxy)-1′,3′-dihydro-1H,2′H-2,2′-biinden-2′yl]methyl}benzoic acid]",202.25,192.63,,,
"NCC(=O)O[C@H]1c2ccccc2C[C@]1(Cc1ccc(C(=O)O)cc1)C1=Cc2ccccc2C1 [Compound 27, 4-{[(1′R,2′R)-1′-(glycyloxy)-1′,3′-dihydro-1H,2′H-2,2′-biinden-2′-yl]methyl}benzoic acid]",350.13,172.88,potentiates release of IL2,,
"CC(C)C[C@H](N)C(=O)O[C@@H]1c2ccccc2C[C@@]1(Cc1ccc(C(=O)O)cc1)C1=Cc2ccccc2C1 [Compound 28, 4-{[(1′S,2′S)-1′-(L-leucyloxy)-1′,3′-dihydro-1H,2′H-2,2′-biinden-2′-yl]methyl}benzoic acid]",214.75,135.63,,,
"CC(C)[C@H](N)C(=O)O[C@@H]1c2ccccc2C[C@@]1(Cc1ccc(C(=O)O)cc1)C1=Cc2ccccc2C1 [Compound 29, 4-{[(1′S,2′S)-1′-(L-valyloxy)-1′,3′-dihydro-1H,2′H-2,2′-biinden-2′-yl]methyl}benzoic acid]",220.50,177.88,,,
"CC[C@H](C)[C@H](N)C(=O)O[C@@H]1c2ccccc2C[C@@]1(Cc1ccc(C(=O)O)cc1)C1=Cc2ccccc2C1 [Compound 30, 4-{[(1′S,2′S)-1′-(L-isoleucyloxy)-1′,3′-dihydro-1H,2′H-2,2′-biinden-2′-yl]methyl}benzoic acid]",191.63,174.50,,,
"COC(=O)c1ccc(C[C@]2(C3=Cc4ccccc4C3)Cc3ccccc3[C@@H]2OC(=O)[C@@H](N)CC(C)C)cc1 [Compound 32, methyl 4-(((1R,2R)-1-(((S)-2-amino-4-methylpentanoyl)oxy)-2,3-dihydro-1H,1′H-[2,2′-biinden]-2-yl)methyl)benzoate]",215.25,74.88,,86.2,40.8
"CCOC(=O)c1ccc(C[C@]2(C3=Cc4ccccc4C3)Cc3ccccc3[C@@H]2OC(=O)[C@@H](N)CC(C)C)cc1 [Compound 33, ethyl 4-(((1R,2R)-1-(((S)-2-amino-4-methylpentanoyl)oxy)-2,3-dihydro-1H,1′H-[2,2′-biinden]-2-yl)methyl)benzoate]",186.25,74.38,,89.4,43.6
"CCCOC(=O)c1ccc(C[C@]2(C3=Cc4ccccc4C3)Cc3ccccc3[C@@H]2OC(=O)[C@@H](N)CC(C)C)cc1 [Compound 34, propyl 4-(((1R,2R)-1-(((S)-2-amino-4-methylpentanoyl)oxy)-2,3-dihydro-1H,1′H-[2,2′-biinden]-2-yl)methyl)benzoate]",173.25,71.38,,95.8,51.5
"CC(C)C[C@H](N)C(=O)O[C@H]1c2ccccc2C[C@]1(Cc1ccc(C(N)=O)cc1)C1=Cc2ccccc2C1 [Compound 35, (1R,2R)-2-(4-carbamoylbenzyl)-2,3-dihydro-1H,1′H-2,2′-biinden-1-yl L-leucinate]",238.88,189.38,inactive,149,95.5
"CC(C)C[C@H](N)C(=O)O[C@H]1c2ccccc2C[C@]1(Cc1ccc(C(=O)NCCO)cc1)C1=Cc2ccccc2C1 [Compound 36, (1R,2R)-2-{4-[(2-hydroxyethyl)carbamoyl]benzyl}-2,3-dihydro-1H,1′H-2,2′-biinden-1-yl L-leucinate]",207.38,138.13,,96,56.3
